In patent US20110053897A1 (IRM LLC, priority 2009, published 2011):
Like-named read-outs stand apart in the source and are kept apart here.

Molecular target: T1, Syk kinase (Homo sapiens, UniProt P43405)
T1 construct: purchased
Test: Syk kinase inhibition, Caliper LabChip off-chip mobility-shift kinase assay
Type: biochemical
Details: read-out: Syk Enzyme IC50
Method in brief: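 Purified Syk pre-incubated 15 min with compound in 100 mM HEPES pH 7.5, 1 mM DTT, 10 mM MgCl2 or MnCl2, 0.002% Brij-35, then 1.5 μM fluorescein peptide and ATP at apparent KM added; 1–1.5 h at room temperature, 4% DMSO, EDTA stop. Microfluidic mobility-shift product/substrate conversion gave % inhibition; IC50 from 12-point series (10–0.00003 μM) by 4-parameter fit.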

Row | SMILES | IC50 (Caliper LabChip assay) [nM] | IC50 [nM]
1 | C[C@@H](CO)Oc1cc(Nc2cc3ccn(C[C@H](O)CO)c(=O)c3c(NC(C)(C)C)n2)ncn1 [compound 643, 8-(tert-butylamino)-2-((S)-2,3-dihydroxypropyl)-6-(6-((S)-1-hydroxypropan-2-yloxy)pyrimidin-4-ylamino)-2,7-naphthyridin-1(2H)-one] | 9 | –
2 | COc1cncc(-c2cc3cc[nH]c(=O)c3c(Nc3ccc(C4CCN(C(C)C(=O)NCCO)CC4)c(C)c3)n2)n1 (centres unmarked) [compound 122] | – | 92
3 | CCn1ccc2cc(Nc3cc(C)ccn3)nc(NC3CCC(C)(O)CC3)c2c1=O (centres unmarked) [compound 951] | 92 | –
4 | O=c1[nH]ccc2cc(NC3CCC(O)CC3)nc(Nc3ccc(N4CCOCC4)cc3)c12 (centres unmarked) [compound 657] | 152 | –
5 | CCn1ccc2cc(-c3cnc(N)nc3)nc(NC3(C)CCC3)c2c1=O [compound 906] | 29 | –
6 | C[C@@H]1CN(c2ccc(Nc3nc(/C=C/C(=O)O)cc4cc[nH]c(=O)c34)cn2)CCO1 [compound 241] | – | 208
7 | [2H]C([2H])([2H])n1ccc2cc(Nc3cc(C)ccn3)nc(N[C@H]3CC[C@H](O)CC3)c2c1=O [compound 983] | 51 | –
8 | CCOC(C)c1cc2cc[nH]c(=O)c2c(Nc2ccc(N3CCO[C@H](C)C3)c(C)c2)n1 (some centres unmarked) [compound 233] | – | 754
9 | CC(C)(C)Nc1nc(Nc2cc(OCC3CCOC3)ncn2)cc2ccn(CC(O)CO)c(=O)c12 (centres unmarked) [compound 887] | 48 | –
10 | [2H]C([2H])([2H])n1ccc2cc(Nc3cc(Cl)ccn3)nc(NC[C@@H]3CCCO3)c2c1=O [compound 1052] | 236 | –
11 | Cn1ccc2cc(Nc3cnccn3)nc(NCCCO)c2c1=O [compound 474] | – | 140
12 | CC(C)n1ccc2cc(-c3cnc(N)nc3)nc(N[C@H]3CC[C@@H](O)CC3)c2c1=O [compound 1027] | 32 | –
13 | O=c1c2c(NCC(F)(F)F)nc(Nc3cnccn3)cc2ccn1CCO [compound 456] | – | 21.5
14 | COc1cncc(-c2cc3cc[nH]c(=O)c3c(Nc3ccc(C4CCN(C(=O)C(C)(C)N)CC4)c(C)c3)n2)n1 [compound 52] | – | 30
15 | CS(=O)(=O)c1ccc(Nc2nc(Nc3cnccn3)cc3ccn(CCO)c(=O)c23)cc1 [compound 405] | – | 235
16 | CC(O)c1ccnc(Nc2cc3ccn(CC(N)=O)c(=O)c3c(NC3(C)CCC3)n2)c1 (centres unmarked) [compound 721] | 18 | –
17 | COCCNC(=O)c1ccc(Nc2nc(-c3cnc(C)nc3)cc3cc[nH]c(=O)c23)cc1 [compound 74] | – | 29
18 | COc1cncc(-c2cc3cc[nH]c(=O)c3c(Nc3ccc([C@H]4CC[C@H](N5CCOCC5)CC4)cc3)n2)n1 [compound 56] | – | 358
19 | CC(C)(C)Nc1nc(-c2cnc(N)c(CO)c2)cc2ccn(CCO)c(=O)c12 [compound 720] | 75 | –
20 | CC[C@@H](CO)Nc1nc(Nc2cnccn2)cc2ccn(CC)c(=O)c12 [compound 1042] | 111 | –
21 | CC(C)Nc1nc(Nc2cc(C(C)(C)O)ccn2)cc2ccn(CCO)c(=O)c12 [compound 705] | 14 | –
22 | CC(C)(C)Nc1nc(Nc2cnccn2)cc2ccn(CCO)c(=O)c12 [compound 459] | – | 52
23 | COCCN1CCN(c2n[nH]c3cc(Nc4nc(-c5ccc(C)nc5)cc5cc[nH]c(=O)c45)ccc23)CC1 [compound 215] | – | 67
24 | Cc1ccnc(Nc2cc3cc[nH]c(=O)c3c(NCC3CC3)n2)c1 [compound 285] | – | 201

Row | SMILES | IC50 (Caliper LabChip assay) [nM] | IC50 [nM]
25 | CC(C)(C)Nc1nc(Nc2cnccn2)cc2ccn(CC(F)F)c(=O)c12 [compound 1023] | 179 | –
26 | CCn1ccc2cc(Nc3cc(C)ccn3)nc(NC[C@@H]3CC[C@](C)(O)C3)c2c1=O [compound 414] | – | 287
27 | Cn1ccc2cc(Nc3cc(Cl)ccn3)nc(N[C@H]3CC[C@H](O)CC3)c2c1=O [compound 385] | – | 28
28 | CCn1ccc2cc(-c3cnc(N)nc3)nc(NS(C)(=O)=O)c2c1=O [compound 744, N-(3-(2-Aminopyrimidin-5-yl)-7-ethyl-8-oxo-7,8-dihydro-2,7-naphthyridin-1-yl)methane sulfonamide] | 202 | –
29 | Cc1ccnc(Nc2cc3cc[nH]c(=O)c3c(NC(C)C)n2)c1 [compound 490] | – | 32
30 | CCn1ccc2cc(-c3cnc(N)nc3)nc(NC3(CO)CCC3)c2c1=O [compound 905] | < 1.01 | –
31 | COCCn1ccc2cc(Nc3cnccn3)nc(NC(C)C)c2c1=O [compound 319] | – | 137
32 | CCn1ccc2cc(Nc3cc(C)ccn3)nc(Nc3ccc(C(=O)NCCO)cc3)c2c1=O [compound 834] | 126 | –
33 | Cn1ccc2cc(Nc3cc(Cl)ccn3)nc(NC3CCC3)c2c1=O [compound 544] | – | 810
34 | CC(C)(C)Nc1nc(Nc2cnccn2)cc2ccn(CCOCCO)c(=O)c12 [compound 1013] | 69 | –
35 | COc1cncc(-c2cc3cc[nH]c(=O)c3c(Nc3ccc(C4CNC4)cc3)n2)n1 [compound 145] | – | 6
36 | Cc1ccnc(Nc2cc3ccn(C)c(=O)c3c(Nc3ccc(OCCN4CCOCC4)cc3)n2)c1 [compound 653] | 333 | –
37 | Cc1ccnc(Nc2cc3cc[nH]c(=O)c3c(NC3CCOC3)n2)c1 (centres unmarked) [compound 273] | – | 42
38 | CC(C)(C)Nc1nc(Nc2cc(C(C)(C)O)ccn2)cc2ccn(CCO)c(=O)c12 [compound 698, 8-(tert-butylamino)-2-(2-hydroxyethyl)-6-(4-(2-hydroxypropan-2-yl)pyridin-2-ylamino)-2,7-naphthyridin-1(2H)-one] | 131 | –
39 | Cc1ncc(-c2cc3cc[nH]c(=O)c3c(Nc3ccc(C4CCC(N(C)C)CC4)cc3)n2)cn1 (centres unmarked) [compound 106] | – | 67
40 | CC1(Nc2nc(Nc3cc(C(C)(C)O)ncn3)cc3ccn(CC(O)CO)c(=O)c23)CC1 (centres unmarked) [compound 729] | 31 | –
41 | CCOCCOc1ccc(Nc2nc(Nc3cc(C)ccn3)cc3ccn(C)c(=O)c23)cc1 [compound 334] | – | 1720
42 | [2H]C([2H])([2H])n1ccc2cc(Nc3cc(C)c(Cl)cn3)nc(NC3CC3)c2c1=O [compound 548] | – | 468
43 | CCn1ccc2cc(Nc3cc(C)ccn3)nc(N)c2c1=O [compound 801] | 1900 | –
44 | CC1(Nc2nc(-c3cnc(N)nc3)cc3ccn(CC4(CO)COC4)c(=O)c23)CCC1 [compound 933] | 25 | –
45 | C/C(=N\O)c1ccnc(Nc2cc3ccn(CCO)c(=O)c3c(NC(C)(C)C)n2)c1 [compound 685, (E)-8-(tert-butylamino)-2-(2-hydroxyethyl)-6-(4-(1-(hydroxyimino)ethyl)pyridin-2-ylamino)-2,7-naphthyridin-1(2H)-one] | 62 | –
46 | CCn1ccc2cc(Nc3cc(C)ccn3)nc(N[C@@H]3CCC[C@@H]3O)c2c1=O [compound 418] | – | 182
47 | COCCN1CCN(c2n[nH]c3cc(Nc4nc(-c5cnc(OC)nc5)cc5cc[nH]c(=O)c45)ccc23)CC1 [compound 216] | – | 37
48 | Cc1ccnc(Nc2cc3cc[nH]c(=O)c3c(N3CCCC3)n2)c1 [compound 269] | – | 554

Row | SMILES | IC50 (Caliper LabChip assay) [nM] | IC50 [nM]
49 | COC(=O)CN1CCC(c2ccc(Nc3nc(-c4cncc(OC)n4)cc4cc[nH]c(=O)c34)cc2C)CC1 [compound 157] | – | 99
50 | CCN1CCC[C@@H]1CNC(=O)c1ccc(Nc2nc(-c3cncc(OC)n3)cc3cc[nH]c(=O)c23)cc1 [compound 83] | – | 14
51 | CC[C@H](C)Nc1nc(-c2cnc(N)nc2)cc2cc[nH]c(=O)c12 [compound 187] | – | 301
52 | Cc1ccnc(Nc2cc3cc[nH]c(=O)c3c(NC(C)CC(C)C)n2)c1 (centres unmarked) [compound 270] | – | 6950
53 | CN1CC(c2ccc(Nc3nc(-c4cncnc4)cc4cc[nH]c(=O)c34)cc2)C1 [compound 138] | – | 26
54 | CCN1CCN(CCc2ccc(Nc3nc(Nc4ccc(C(=O)O)cn4)cc4cc[nH]c(=O)c34)cc2)CC1 [compound 581] | – | 16
55 | CC(C)(C)Nc1nc(Nc2cc(Oc3cn[nH]c3)ncn2)cc2ccn(C[C@H](O)CO)c(=O)c12 [compound 890] | 21 | –
56 | COCCC(=O)N1CCC(c2ccc(Nc3nc(-c4cncc(OC)n4)cc4cc[nH]c(=O)c34)cc2)CC1 [compound 26] | – | 72
57 | Cc1ccc(-c2cc3cc[nH]c(=O)c3c(Nc3ccc(C4CNC4)cc3)n2)cn1 [compound 131] | – | 111
58 | Cc1cc(Nc2nc(Nc3ccc(C(F)(F)F)cn3)cc3cc[nH]c(=O)c23)ccc1N1CCO[C@H](C)C1 [compound 583] | – | 8440
59 | COc1cncc(-c2cc3cc[nH]c(=O)c3c(Nc3ccc(C4CCN(C(=O)C5CCOC5)CC4)c(C)c3)n2)n1 (centres unmarked) [compound 89] | – | 55
60 | CCn1ccc2cc(Nc3cc(C)ccn3)nc(NC[C@H]3CC[C@H](O)C3)c2c1=O [compound 410] | – | 120
61 | COc1cncc(-c2cc3cc[nH]c(=O)c3c(Nc3ccc(C4CCN(C(C)C)CC4)c(C)c3)n2)n1 [compound 165] | – | 3
62 | O=C1CCC(c2ccc(Nc3nc(-c4cncnc4)cc4cc[nH]c(=O)c34)cc2)CC1 [compound 91] | – | 400
63 | CCOC(=O)c1cnn(-c2cc(Nc3cc4ccn(CCO)c(=O)c4c(NC(C)(C)C)n3)ncn2)c1 [compound 889] | 2180 | –
64 | CC(C)(O)Cc1ccnc(Nc2cc3ccn(CCO)c(=O)c3c(NC(C)(C)C)n2)c1 [compound 880] | 74 | –
65 | CCn1ccc2cc(Nc3cc(C)ccn3)nc(Nc3ccc(C(=O)N4CCC(O)C4)cc3)c2c1=O (centres unmarked) [compound 836] | 119 | –
66 | CNS(=O)(=O)c1ccc(Nc2nc(Nc3cnccn3)cc3ccn(C)c(=O)c23)cc1 [compound 350] | – | 803
67 | CC(C)(C)Nc1nc(-c2cnc(N)nc2)cc2cc[nH]c(=O)c12 [compound 894] | 5 | –
68 | CC(C)(C)Nc1nc(Nc2cnccn2)cc2ccn(CCN3CCOCC3)c(=O)c12 [compound 998] | 205 | –
69 | CC1(Nc2nc(Nc3cc(C(C)(C)O)ncn3)cc3ccn(CC(N)=O)c(=O)c23)CC1 [compound 620] | 148 | –
70 | CC(C)(C)N1CC=C(c2ccc(Nc3nc(-c4cncnc4)cc4cc[nH]c(=O)c34)cc2)CC1 [compound 94] | – | 13
71 | CCC(C)(C)Nc1nc(Nc2cc(C)ccn2)cc2cc[nH]c(=O)c12 [compound 528] | – | 374
